Source: patent US20020094992A1, “Intermittent administration of a growth hormone secretagogue” (priority 2000, published 2002)

Assays:
[1] = Solubility and osmotic pressure of the active compound; assay type: physicochemical
[2] = tested on: male and female subjects between the ages of 65 and 84 years, baseline IGF-1 <150 ng/ml; experiment: Clinical study, first leg (immediate release dosage forms): IGF-1, IGFBP-3, body composition; assay type: in vivo, human
Procedure: (§1) This clinical study was performed in male and female subjects between the ages of 65 and 84 years inclusive, and whose baseline IGF-1 levels were <150 ng/ml.
(§2) The study was a double blind, parallel group, placebo-controlled study.
In the first leg of the study, the safety and efficacy of 2-amino-N-[2-(3a-(R)-benzyl-2-methyl-3-oxo-2,3,3a,4,6,7-hexahydro-pyrazolo[4,3-c]pyridin-5-yl)-1-(R)-benzyloxymethyl-2-oxo-ethyl]-isobutyramide L-tartrate was studied in 4 groups of approximately 24 subjects at doses of 0 mg (placebo), 1 mg tid, 3 mg tid and 3 mg am and 6 mg pm. (All dosage forms in this part of the study were immediate release dosage forms.)
(§3) Return visits were scheduled at 1, 2, and 4 weeks after baseline. A blood sample for 2-amino-N-[2-(3a-(R)-benzyl-2-methyl-3-oxo-2,3,3a,4,6,7-hexahydro-pyrazolo[4,3-c]pyridin-5-yl)-1-(R)-benzyloxymethyl-2-oxo-ethyl]-isobutyramide L-tartrate and IGF-1 levels was obtained at each visit. The baseline and all subsequent follow-up visits were performed at the same time of day (between approximately 8-11 am).
(§4) A follow-up evaluation was made at 1, 2, and 4 weeks. Vital signs were obtained and the skin of the face, trunk and upper extremities was inspected. A blood sample was obtained for measurement of GH and IGF-1, and for measurement of plasma concentrations of 2-amino-N-[2-(3a-(R)-benzyl-2-methyl-3-oxo-2,3,3a,4,6,7-hexahydro-pyrazolo[4,3-c]pyridin-5-yl)-1-(R)-benzyloxymethyl-2-oxo-ethyl]-isobutyramide L-tartrate.
(§5) The primary efficacy endpoint was the percentage change from baseline in IGF-1. Secondary outcomes included insulin-like growth factor binding protein 3 (IGIFBP-3), cholesterol subfractions, and percent changes in total adipose and total lean tissue. Changes in each of the secondary efficacy measures over time were examined systematically either graphically or in tabular form and summarized using appropriate descriptive statistics as is well known in the art.

[3] = tested on: male and female subjects between the ages of 65 and 84 years, baseline IGF-1 <150 ng/ml; experiment: Clinical study, extension study (CR, CR+IR, daily or every third day): IGF-I, GH peaks, body composition; assay type: in vivo, human
Procedure: as §1, §2
In addition, an extension study was conducted to evaluate the relationship between peak GH concentrations or IGF-I versus surrogate responses such as lipid concentrations and body composition. A controlled release (CR) formulation was also evaluated, either alone or combined with an immediate release (IR) formulation (24-30 patients per group). [16mg (10 CR, 6 IR) h.s.( h.s. means at bedtime); 16 mg (10 CR, 6 IR) h.s. every third day; 16 mg CR h.s.; and placebo.] The formulations are set forth below.
In the extension study, 2-amino-N-[2-(3a-(R)-benzyl-2-methyl-3-oxo-2,3,3a,4,6,7-hexahydro-pyrazolo[4,3-c]pyridin-5-yl)-1-(R)-benzyloxymethyl-2-oxo-ethyl]-isobutyramide L-tartrate was supplied as 10 mg or 3 mg controlled release tablets and 3 mg immediate release tablets, with matching placebo tablets. Study active compound was supplied in blisterpaks, with five tablets to be taken at time of each dosing. Subjects were instructed to take the tablets with one glass of water at bedtime.
as §3
In addition to this schedule, subjects at selected sites in the extension study were studied during two overnight admissions on the first night of dosing and again on day 28 of dosing. Growth hormone secretion and pharmacokinetic sampling was carried out.
as §4
In addition, subjects at selected study centers were admitted to an overnight unit on day 28 of dosing. Growth hormone secretion profile, pharmacokinetics, and vital sign determination were carried out.
as §5

[4] = two groups receiving IR formulation

CN1N=C2CCN(C(=O)[C@@H](COCc3ccccc3)NC(=O)C(C)(C)N)C[C@@]2(Cc2ccccc2)C1=O.O=C(O)C(O)C(O)C(=O)O [2-amino-N-[2-(3a-(R)-benzyl-2-methyl-3-oxo-2,3,3a,4,6,7-hexahydro-pyrazolo[4,3-c]pyridin-5-yl)-1-(R)-benzyloxymethyl-2-oxo-ethyl]-isobutyramide L-tartrate]
osmotic pressure [1]: about 4 atmospheres | pH dependence of solubility ([1]; this GHSEC is a base): generally higher at acidic pH | solubility ([1]; water): > 150 mg/mL | IGF-1 dose relation ([2]; 0 mg, 1 mg tid, 3 mg tid, 3 mg am and 6 mg pm): dose related increase | increase in IGF-1 ([2]; both groups administered 9 mg daily (3 mg tid; 3 mg am and 6 mg pm), immediate release): approximately 35% | IGFBP3 ([2]; first leg): increased | changes in body composition ([2]; first leg, small changes): decreased adipose tissue and increased apparent whole body lean mass | attenuation of GH peaks ([3]; Q 3 day group compared with daily group): less attenuation | average GH peaks ([3]; group receiving CR alone, after 4 weeks): < 2 ng/mL | average GH peaks ([3]; group receiving CR alone, at baseline (first night of dosing)): less than 4 ng/ml | average GH peaks ([3]; groups receiving 6 mg IR (with 10 mg CR), at baseline): ≥ 15 ng/mL | average GH peaks ([3]; groups receiving 6 mg IR (with 10 mg CR), by 4 weeks): 4 to 6 ng/mL | GH peak height, Q 3 day group greater than QD group ([3]; on average): 1.52 ng/mL | average rise of IGF-I ([3]; remaining group, apparently 16 mg (10 CR, 6 IR) h.s. every third day): approximately 10% | IGF-I ([3]; the 2 groups dosed daily (16 mg CR h.s., 16 mg (10 CR, 6 IR) h.s.)): increases | adipose tissue [3, 4]: corresponding reductions | increases in lean tissue [3, 4]: 0.5-0.6%
